Results reported in patent US20100215632A1, “BIOMARKERS OF SIRTUIN ACTIVITY AND METHODS OF USE THEREOF” (Sirtris Pharmaceuticals, Inc., priority 2007, published 2010).

Experiments:
FGF21 = FGF21 expression in liver of diet-induced obesity mice (microarray); assay type: in vivo, mouse; settings: 3 day liver, oral once per day; resveratrol 1000 mg/kg, Compound 1 100 mg/kg
Experimental: (§1) As with Example 2, the diet-induced obesity (D10) model was used. 51 C57BL/6 mice are started on a 60% kcal high fat diet. Mice are weighed once a week for approximately 7 weeks on the high fat diet until the average body weight of the D10 mice is 40 grams. The study is divided into 3 groups of […] mice per group with mean average body weight/cage. Animals are dosed orally once per day as follows: Resveratrol at 1000 mg/kg in 2% HPMC/0.2% DOSS, Compound 1 at 100 mg/kg in 2% HPMC/0.2% DOSS and vehicle control animals 2% HPMC/0.2% DOSS. Concentration of compound is adjusted to proper dose according to the mean weight for each group weekly. Mice are typically dosed in the a.m. and are only dosed in the p.m. on days following a 16 hour fast. On day 3 of dosing, liver tissue is collected from the mice 1 hour post dose.
The liver is isolated as in Example 2. Total RNA from the liver sample is extracted with standard techniques (e.g. PureLink Micro-to-Midi Total RNA Purification System, Invitrogen cat. #12183-018).
Expression of multiple genes was determine by microarray as in Example 4.

liver = test: Overall pattern of change in gene expression in 3 day liver of diet-induced obesity mice (gene chip); assay type: in vivo, mouse; settings: 1000 mg/kg oral once per day
Excerpt: A mouse model of diet induced obesity was used to identify sirtuin biomarkers in mice following dosing with two chemically unrelated sirtuin activators. Obesity and type II diabetes are being intensively studied in animal models, particularly the mouse. One such model is commonly referred to as the diet-induced obesity (DIO) model. Typically, C57BL/6 males are fed a high fat diet for 8 to 12 weeks and, as a result, become obese, mildly to moderately hyperglycemic, and glucose intolerant. These mice are then used to study the genetic and physiological mechanisms of obesity and type II diabetes.
as §1, with “51” for “As with Example 2, the diet-induced obesity (D10) model was used. 51”, “DIO” for “D10”, “Each group is split up into 3 sub-groups for a 3, 16 and 42” for “On”, “collection time point.” for “3 of dosing, liver tissue is collected from the mice 1 hour post dose.”
Once dosing starts data collections are as follow. Day 3: collect tissues, blood and glucose from 6 mice from each group 1 hour post dose. Also take fed glucose from remaining groups. Day 13: Intraperitoneal glucose tolerance test (IPGTT). Day 16: collect tissues, blood and glucose from 6 mice from each group 1 hour post dose. Also take fed glucose from remaining groups. Day 28: Fasted glucose. […]
Total RNA isolated from either Example 2 above (mouse tissues following in vivo treatment with either Compound 1 or resveratrol) or Example 3 above (human WBC following ex vivo treatment with either Compound 2 or resveratrol) was analyzed using an Affymetrix GeneChip specific to either the mouse or human genome. […]

O=C(Nc1ccccc1-c1cn2c(CN3CCNCC3)csc2n1)c1cnc2ccccc2n1 [Compound 1]
FGF21 mRNA levels versus control mice (FGF21): markedly higher

Oc1ccc(C=Cc2cc(O)cc(O)c2)cc1 [resveratrol, 3,5,4′-trihydroxystilbene]
activity of PGC1a and PPAR family members (liver): increased activity of PGC1a and PPAR family members
activity of hepatic transcription factors involved in glucose homeostasis and the stress response pathway (liver): increased activity of hepatic transcription factors
inflammatory signaling (pattern of gene expression) (liver): decreased inflammatory signaling
FGF21 mRNA levels versus control mice (FGF21): markedly higher
